Columns and labels:
MEK1 = test: H2O2-induced MEK1 phosphorylation in astrocytes (ELISA); type: cell-based, rat; details: H2O2 175 μM 40 min; for effect on H2O2-induced phosphorylation of MEK1: astrocytes preincubated 2 h
Description: Astrocytes were treated with TTF 2 h before the addition of H2O2. Cells were lysed 40 minutes after the addition of H2O2 in lysis buffer supplied by PathScan sandwich ELISA kit (Cell Signaling TECHNOLOGY) according to the manufacturer's protocol. Protein concentrations in cell lysates were determined by Bradford reagent (Bio-Rad, Hercules, Calif.), and equal amounts of proteins were subjected to ELISA. To measure the amount of total and phosphoSAPK/JNK in cell lysates of astrocytes, ELISA was performed according to the manufacturer's protocol using the PathScan total SAPK/JNK sandwich ELISA kit (Cell Signaling TECHNOLOGY) and the PathScan phospho-SAPK/JNK (Thr183/Tyr185) sandwich ELISA kit (Cell Signaling TECHNOLOGY), respectively. To measure the amount of total and phospho-ERK 1/2 (i.e. phospho-p44/42 MAPK) in cell lysates of astrocytes, ELISA was performed according to the manufacturer's protocol using the PathScan total p44/42 MAPK (ERK 1/2) sandwich ELISA kit (Cell Signaling TECHNOLOGY) and the PathScan phospho-p44/42 MAPK (Thr202/Tyr204) sandwich ELISA kit (Cell Signaling TECHNOLOGY), respectively. To measure the amount of total and phospho-MEK1 in cell lysates of astrocytes, ELISA was performed according to the manufacturer's protocol using the PathScan total MEK1 sandwich ELISA kit (Cell Signaling TECHNOLOGY) and the PathScan phospho-MEK1 (Ser217/221) sandwich ELISA kit (Cell Signaling TECHNOLOGY), respectively. […] The optical density was determined at 450 nm using a microplate reader.
1. […] Determine the optical density at 450 nm using a microplate reader.
Astrocytes were treated with 175 μM of H2O2 for 40 min following preincubation with TTF for 2 h. The levels of phosphorylated and total SAPK/JNK (FIG. 3A), MEK1 (FIG. 3B) and ERK 1/2 (FIG. 3C) were measured by ELISA. […]

[1] = DPPH free radical scavenging assay; details: cell free; 8 min
Description: Antioxidant activity was measured using the 2,2-diphenyl-1-pieryhydrazyl (DPPH) radical scavenging assay. Different dilutions of TTF (or control drugs) were added to 1 mL of DPPH (3.9 mg/100 mL methanol) in test tubes wrapped in aluminum foil. Absorbance (A) was measured at 517 nm after 8 min incubation in the dark. The scavenging ability (%) of the samples was calculated as (Acontrol−Asample)/Acontrol×100).
Antioxidant activity was measured using the 2,2-diphenyl-1-pieryhydrazyl (DPPH) radical scavenging assay. Different dilutions of achillolide A or quercetin were added to 1 mL of DPPH (3.9 mg/100 mL methanol) in test tubes wrapped in aluminum foil. Absorbance (A) was measured at 517 nm after 8 min incubation in the dark. The scavenging ability (%) of the samples was calculated as (Acontrol−Asample)/Acontrol×100).
The DPPH scavenging ability of TTF, memantine and quercetin were compared for eight minutes. Results are shown in FIG. 7 and are the mean±SEM of two experiments performed in duplicates (n=4).
The DPPH scavenging ability of achillolide A and quercetin were tested for eight minutes. Values represent the mean±SEM (n=4 for each concentration). **p<0.01; ***p<0.001, compared to a mixture without achillolide A or quercetin.

Compound | inhibition of H2O2-induced phosphorylation of MEK1 (MEK1; astrocytes pretreated 2 h, total MEK1 not affected) [%] | IC50 [1] [µM] | inhibition of DPPH absorbance at 517 nm (maximal scavenging ability) [1] [%] | effect on H2O2-induced phosphorylation of MEK1 (MEK1)
COc1cc(-c2oc3cc(OC)c(OC)c(O)c3c(=O)c2O)ccc1O [TTF, 3,5,4′-trihydroxy-6,7,3′-trimethoxyflavone] | 27 | 45 | 60 | –
O=c1c(O)c(-c2ccc(O)c(O)c2)oc2cc(O)cc(O)c12 [quercetin, 3,3′,4′,5,7-Pentahydroxyflavone, reference compound] | – | – | 90 | –
CC12CC3CC(C)(C1)CC(N)(C3)C2 [memantine, reference compound] | – | – | 7 | inhibitory effect
C=C1CCC2=C(CO)C(=O)O[C@H]2/C=C(\C)[C@H](OC(C)=O)CC1=O [achillolide A] | – | 45 | 60 | inhibitory effect
